Tests used:
[1] = molecular target: T1, central benzodiazepine receptor (CBR); experiment: Affinity to CBR using [11C]flumazenil, a selective ligand for CBR; format: binding, rat; conditions: [11C]flumazenil
T1 construct: IC50 CBR; other: [11C]flumazenil
Protocol: (§1) On the other hand, affinity of FMDAA1106 and FEDAA1106 to central benzodiazepine receptor (CBR) was determined (Table 1) using [^11C]flumazenil which is a selective ligand for CBR. As a result, affinity of FEDAA1106 and FMDAA1106 to CBR was not less than 10 μM and was about 10,000-fold weaker than the affinity of PBR. […] Incidentally, partition coefficients (log P) of the two ligands were measured by an octanol/water (pH 7.4) partition method.

[2] = system: central benzodiazepine receptor (CBR); experiment: as above; format: binding, rat; conditions: CBR versus PBR selectivity
Protocol: as §1

[3] = molecular target: T2, peripheral benzodiazepine receptor (PBR) (Rattus norvegicus, UniProt P16257); experiment: In vitro affinity to PBR: displacement of [11C]DAA1106 binding on rat brain sections (autoradiography, olfactory bulb ROI); conditions: for IC50: [11C]DAA1106 1 nM, rat brain sections, olfactory bulb, 37° C. 30 minutes, probit method
T2 construct: Sagittal sections of the rat were prepared using Crystat microtome; from tissue; host or cells: rat brain sagittal sections (ROI: olfactory bulb)
Protocol: Under anesthetization with ether, male Sprague-Dawley rats (250 to 300 g; n=4) were slaughtered and the brain was quickly cut and frozen in dry ice. Sagittal sections of the rat were prepared using Crystat microtome (MICROM HM560, Carl Zeiss GmbH, Germany). The sections were previously incubated in a 50 mM Tris buffer (pH=7.4) for 30 minutes. After that, the sections were taken out and again incubated at 37° C. for 30 minutes in 50 mM Tris buffer (pH=7.4) containing each of the following reagents at the same time.
After completion of the incubation, the section was taken out and dipped in an ice-cooled Tris buffer for 2 minutes twice. The section was dipped in ice-cooled distilled water and then dried. […] A region of interest (ROI) was defined as an olfactory bulb and radioactivity was expressed in terms of a photo-stimulated-luminescence (PSL)/mm^2 region. Specific binding of [^11C]DAA1106 in the presence of DAA1106, PK11156, FMDAA1106 and FEDAA1106 of various concentrations was determined and IC50 (nM) of those reagents was calculated by a probit method.

[4] = Partition coefficient (log P) by octanol/water (pH 7.4) partition method; format: physicochemical
Protocol: as §1

SMILES | IC50 [1] | affinity to CBR weaker than the affinity of PBR [2] | IC50 [3] | affinity to PBR as compared with DAA1106 ([3]; relative to DAA1106) | affinity to PBR as compared with PK11195 ([3]; relative to PK11195) | logP [4]
CCC(C)N(C)C(=O)c1cc2ccccc2c(-c2ccccc2Cl)n1 (stereo not shown) [PK11195, N-methyl-N-(1-methylpropyl)-1-(2-chlorophenyl)-isoquinoline-3-carboxamide, reference compound] | > 10000 nM |  |  |  |  | 
COc1ccc(OCCF)c(CN(C(C)=O)c2cc(F)ccc2Oc2ccccc2)c1 [FEDAA1106, N-[2-(2-fluoro)ethyl-5-methoxybenzyl]-N-(5-fluoro-2-phenoxyphenyl)acetamide] | > 10000 nM | about 10,000 fold | 0.77 nM | two-fold higher affinity | about ten-fold stronger affinity | 3.81
COc1ccc(OC)c(CN(C(C)=O)c2cc(F)ccc2Oc2ccccc2)c1 [DAA1106, N-(2,5-dimethoxybenzyl)-N-(5-fluoro-2-phenoxyphenyl)acetamide, reference compound] | > 10000 nM |  | 1.62 nM |  |  | 3.65

Reference: US6870069B2, “Phenyloxyaniline derivatives” (National Institute of Radiological Sciences, priority 2003, dated 2005)
